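Protocol summary: plate cells (96-well), add compound at 5 concentrations, incubate 48 h, interpolate endpoints linearly. Here, GI50 denotes the concentration required for 50% inhibition of growth. At the TGI there is no net growth.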
Key:
Experiment in all cases: NCI tumour cell line growth inhibition, 48 h
UACC-62 melanoma = system: UACC-62 melanoma
A498 renal = system: A498 renal
MDA-MB-231 breast = system: MDA-MB-231 breast
SK-MEL-5 melanoma = system: SK-MEL-5 melanoma
SK-MEL-28 melanoma = system: SK-MEL-28 melanoma
NCI/ADR-RES ovarian = system: NCI/ADR-RES ovarian
LOX IMVI melanoma = system: LOX IMVI melanoma
NCI-H23 lung = system: NCI-H23 lung
MOLT-4 leukemia = system: MOLT-4 leukemia
HCT-15 colon = system: HCT-15 colon
CAKI-1 renal = system: CAKI-1 renal
OVCAR-5 ovarian = system: OVCAR-5 ovarian
HS 578T breast = system: HS 578T breast
SK-MEL-2 melanoma = system: SK-MEL-2 melanoma
SF-268 CNS = system: SF-268 CNS
SNB-19 CNS = system: SNB-19 CNS
RPMI-8226 leukemia = system: RPMI-8226 leukemia
COLO 205 colon = system: COLO 205 colon
HCT-116 colon = system: HCT-116 colon
SNB-75 CNS = system: SNB-75 CNS
U251 CNS = system: U251 CNS
HOP-92 NSCLC = system: HOP-92 NSCLC
KM12 colon = system: KM12 colon
NCI-H460 lung = system: NCI-H460 lung
T-47D breast = system: T-47D breast
BT-549 breast = system: BT-549 breast
DU-145 prostate = system: DU-145 prostate
UO-31 renal = system: UO-31 renal
RXF 393 renal = system: RXF 393 renal
SK-OV-3 ovarian = system: SK-OV-3 ovarian
CCRF-CEM leukemia = system: CCRF-CEM leukemia
HT29 colon = system: HT29 colon
OVCAR-4 ovarian = system: OVCAR-4 ovarian
EKVX NSCLC = system: EKVX NSCLC
ACHN renal = system: ACHN renal
SF-295 CNS = system: SF-295 CNS
HCC-2998 colon = system: HCC-2998 colon
NCI-H226 lung = system: NCI-H226 lung
MDA-MB-468 breast = system: MDA-MB-468 breast
K-562 leukemia = system: K-562 leukemia
HL-60(TB) leukemia = system: HL-60(TB) leukemia
MCF7 breast = system: MCF7 breast
M14 melanoma = system: M14 melanoma
PC-3 prostate = system: PC-3 prostate
786-0 renal = system: 786-0 renal
TK-10 renal = system: TK-10 renal
A549 NSCLC = system: A549 NSCLC
SW-620 colon = system: SW-620 colon
SN12C renal = system: SN12C renal
SF-539 CNS = system: SF-539 CNS
OVCAR-3 ovarian = system: OVCAR-3 ovarian
OVCAR-8 ovarian = system: OVCAR-8 ovarian
IGROV1 ovarian = system: IGROV1 ovarian
MDA-MB-435 = system: MDA-MB-435
SR leukemia = system: SR leukemia
UACC-257 melanoma = system: UACC-257 melanoma
MALME-3M melanoma = system: MALME-3M melanoma
NCI-H522 lung = system: NCI-H522 lung
HOP-62 NSCLC = system: HOP-62 NSCLC

SMILES: O=C(Nc1ccc(Cl)c(C(F)(F)F)c1)c1cncc(C#Cc2cnc3ccc(N4CCOCC4)nn23)c1
- GI50 (UACC-62 melanoma): 785 nM
- TGI (UACC-62 melanoma): 3.63 µM
- GI50 (A498 renal): 1980 nM
- TGI (A498 renal): 6.82 µM
- GI50 (MDA-MB-231 breast): 321 nM
- TGI (MDA-MB-231 breast): 3.1 µM
- GI50 (SK-MEL-5 melanoma): 2070 nM
- TGI (SK-MEL-5 melanoma): 7.78 µM
- GI50 (SK-MEL-28 melanoma): 1240 nM
- TGI (SK-MEL-28 melanoma): 7.05 µM
- GI50 (NCI/ADR-RES ovarian): 2450 nM
- TGI (NCI/ADR-RES ovarian): 15 µM
- GI50 (LOX IMVI melanoma): 812 nM
- TGI (LOX IMVI melanoma): 4.35 µM
- GI50 (NCI-H23 lung): 842 nM
- TGI (NCI-H23 lung): 5.33 µM
- GI50 (MOLT-4 leukemia): 1590 nM
- TGI (MOLT-4 leukemia): 4.77 µM
- GI50 (HCT-15 colon): 2550 nM
- TGI (HCT-15 colon): > 81 µM
- GI50 (CAKI-1 renal): 2070 nM
- TGI (CAKI-1 renal): 11.1 µM
- GI50 (OVCAR-5 ovarian): 883 nM
- TGI (OVCAR-5 ovarian): 18.7 µM
- GI50 (HS 578T breast): 809 nM
- TGI (HS 578T breast): 4.15 µM
- GI50 (SK-MEL-2 melanoma): 1310 nM
- TGI (SK-MEL-2 melanoma): 3.23 µM
- GI50 (SF-268 CNS): 2180 nM
- TGI (SF-268 CNS): 31.5 µM
- GI50 (SNB-19 CNS): 2620 nM
- TGI (SNB-19 CNS): 7.93 µM
- GI50 (RPMI-8226 leukemia): 2420 nM
- TGI (RPMI-8226 leukemia): > 81 µM
- GI50 (COLO 205 colon): 1170 nM
- TGI (COLO 205 colon): 9.92 µM
- GI50 (HCT-116 colon): 356 nM
- TGI (HCT-116 colon): 3.11 µM
- GI50 (SNB-75 CNS): 1150 nM
- TGI (SNB-75 CNS): 4.59 µM
- GI50 (U251 CNS): 3.62 µM
- TGI (U251 CNS): > 81 µM
- GI50 (HOP-92 NSCLC): 255 nM
- TGI (HOP-92 NSCLC): 1550 nM
- GI50 (KM12 colon): 8.1 nM
- TGI (KM12 colon): 46.4 µM
- GI50 (NCI-H460 lung): 2670 nM
- TGI (NCI-H460 lung): 19.1 µM
- GI50 (T-47D breast): 1890 nM
- TGI (T-47D breast): 17.4 µM
- GI50 (BT-549 breast): 1430 nM
- TGI (BT-549 breast): 6.62 µM
- GI50 (DU-145 prostate): 2860 nM
- TGI (DU-145 prostate): > 81 µM
- GI50 (UO-31 renal): 562 nM
- TGI (UO-31 renal): 6.24 µM
- GI50 (RXF 393 renal): 818 nM
- TGI (RXF 393 renal): 2870 nM
- GI50 (SK-OV-3 ovarian): 2590 nM
- TGI (SK-OV-3 ovarian): 11.5 µM
- GI50 (CCRF-CEM leukemia): 2580 nM
- TGI (CCRF-CEM leukemia): > 81 µM
- GI50 (HT29 colon): 1000 nM
- TGI (HT29 colon): 11.1 µM
- GI50 (OVCAR-4 ovarian): 3.8 µM
- TGI (OVCAR-4 ovarian): > 81 µM
- GI50 (EKVX NSCLC): 2120 nM
- TGI (EKVX NSCLC): 21.2 µM
- GI50 (ACHN renal): 1540 nM
- TGI (ACHN renal): 10.3 µM
- GI50 (SF-295 CNS): 2650 nM
- TGI (SF-295 CNS): 33.9 µM
- GI50 (HCC-2998 colon): 2060 nM
- TGI (HCC-2998 colon): 15.2 µM
- GI50 (NCI-H226 lung): 361 nM
- TGI (NCI-H226 lung): 12.5 µM
- GI50 (MDA-MB-468 breast): 2540 nM
- TGI (MDA-MB-468 breast): 14.2 µM
- GI50 (K-562 leukemia): 728 nM
- TGI (K-562 leukemia): > 81 µM
- GI50 (HL-60(TB) leukemia): 256 nM
- TGI (HL-60(TB) leukemia): 3.87 µM
- GI50 (MCF7 breast): 1910 nM
- TGI (MCF7 breast): 15.4 µM
- GI50 (M14 melanoma): 717 nM
- TGI (M14 melanoma): 3.01 µM
- GI50 (PC-3 prostate): 2510 nM
- TGI (PC-3 prostate): 24.4 µM
- GI50 (786-0 renal): 2680 nM
- TGI (786-0 renal): 11.8 µM
- GI50 (TK-10 renal): 2060 nM
- TGI (TK-10 renal): 30.9 µM
- GI50 (A549 NSCLC): 2150 nM
- TGI (A549 NSCLC): > 81 µM
- GI50 (SW-620 colon): 1650 nM
- TGI (SW-620 colon): > 81 µM
- GI50 (SN12C renal): 749 nM
- TGI (SN12C renal): > 81 µM
- GI50 (SF-539 CNS): 160 nM
- TGI (SF-539 CNS): 1640 nM
- GI50 (OVCAR-3 ovarian): 3.93 µM
- TGI (OVCAR-3 ovarian): > 81 µM
- GI50 (OVCAR-8 ovarian): 2500 nM
- TGI (OVCAR-8 ovarian): 19.4 µM
- GI50 (IGROV1 ovarian): 579 nM
- TGI (IGROV1 ovarian): 4.96 µM
- GI50 (MDA-MB-435): 1440 nM
- TGI (MDA-MB-435): > 81 µM
- GI50 (SR leukemia): 1410 nM
- TGI (SR leukemia): > 81 µM
- GI50 (UACC-257 melanoma): 2120 nM
- TGI (UACC-257 melanoma): 21.4 µM
- GI50 (MALME-3M melanoma): 854 nM
- TGI (MALME-3M melanoma): 5.62 µM
- GI50 (NCI-H522 lung): 1600 nM
- TGI (NCI-H522 lung): 7.49 µM
- GI50 (HOP-62 NSCLC): 912 nM
- TGI (HOP-62 NSCLC): 9.9 µM

Source: PubChem BioAssay (NCI)
